Test results taken from PubChem BioAssay AID248 (DTP/NCI, 2004).
Where “and” joins values, the source holds several entries; their conditions need not be identical. Equal values may be shown once. Inconclusive results and toxic doses are left out. Rule as the data show it: active = T/C of 150% or more; inactive = T/C below 125%.

System: L1210 leukemia ip in BDF1 mice, survival T/C
Test: NCI In Vivo Anticancer Drug Screen. Data for tumor model L1210 Leukemia (intraperitoneal) in B6D2F1 (BDF1) mice
Details: endpoint: mean survival time, higher = longer survival
Procedure, shortened: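 Ratio derived from survival: compound-dosed mice over vehicle-dosed mice, all bearing a transplantable tumor.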

[1] = dose: 100.0 mg/kg/injection, schedule: Q04DX003 (ip), vehicle: saline
[2] = dose: 200.0 mg/kg/injection, schedule: Q04DX003 (ip), vehicle: saline
[3] = dose: 400.0 mg/kg/injection, schedule: Q04DX003 (ip), vehicle: saline
[4] = dose: 50.0 mg/kg/injection, schedule: Q04DX003 (ip), vehicle: saline
[5] = dose: 100.0 mg/kg/injection, schedule: Q04DX002 (ip), vehicle: Klucel (hydroxypropylcellulose) (HPC)
[6] = dose: 200.0 mg/kg/injection, schedule: Q04DX002 (ip), vehicle: Klucel (hydroxypropylcellulose) (HPC)
[7] = dose: 400.0 mg/kg/injection, schedule: Q04DX002 (ip), vehicle: Klucel (hydroxypropylcellulose) (HPC)
[8] = dose: 100.0 mg/kg/injection, schedule: Q04DX003 (ip), vehicle: Klucel (hydroxypropylcellulose) (HPC)
[9] = dose: 200.0 mg/kg/injection, schedule: Q04DX003 (ip), vehicle: Klucel (hydroxypropylcellulose) (HPC)
[10] = dose: 50.0 mg/kg/injection, schedule: Q01DX001 (ip), vehicle: carboxymethylcellulose (CMC)
[11] = dose: 100.0 mg/kg/injection, schedule: Q01DX001 (ip), vehicle: carboxymethylcellulose (CMC)
[12] = dose: 200.0 mg/kg/injection, schedule: Q01DX001 (ip), vehicle: carboxymethylcellulose (CMC)
[13] = dose: 400.0 mg/kg/injection, schedule: Q01DX001 (ip), vehicle: carboxymethylcellulose (CMC)
[14] = dose: 100.0 mg/kg/injection, schedule: Q04DX003 (ip), vehicle: saline with Tween-80
[15] = dose: 200.0 mg/kg/injection, schedule: Q04DX003 (ip), vehicle: saline with Tween-80
[16] = dose: 400.0 mg/kg/injection, schedule: Q04DX003 (ip), vehicle: saline with Tween-80
[17] = dose: 100.0 mg/kg/injection, schedule: Q01DX009 (ip), vehicle: saline
[18] = dose: 200.0 mg/kg/injection, schedule: Q01DX009 (ip), vehicle: saline
[19] = dose: 100.0 mg/kg/injection, schedule: Q01DX009 (ip), vehicle: saline with Tween-80
[20] = dose: 200.0 mg/kg/injection, schedule: Q01DX009 (ip), vehicle: saline with Tween-80
[21] = dose: 400.0 mg/kg/injection, schedule: Q01DX009 (ip), vehicle: saline with Tween-80

Measured: T/C

O=P(N1CCOCC1)(N1CCOCC1)N1CCOCC1
inactive: [1] 100 % of control and 112 % of control | [2] 98 % of control and 106 % of control | [3] 97 % of control and 109 % of control

O=C(O)C(O)C(O)C(=O)O.O=C(O)C(O)C(O)C(=O)O.[O]=[V].[O]=[V] (configuration not stated)
inactive: dose: 6.25 mg/kg/injection, schedule: Q01DX009 (ip), vehicle: saline 101 % of control and 110 % of control | dose: 6.25 mg/kg/injection, schedule: Q04DX003 (ip), vehicle: saline 92 % of control and 106 % of control | dose: 12.5 mg/kg/injection, schedule: Q01DX009 (ip), vehicle: saline 101 % of control and 96 % of control | dose: 12.5 mg/kg/injection, schedule: Q04DX003 (ip), vehicle: saline 92 % of control and 96 % of control | dose: 25.0 mg/kg/injection, schedule: Q01DX009 (ip), vehicle: saline 98 % of control and 94 % of control | dose: 25.0 mg/kg/injection, schedule: Q04DX003 (ip), vehicle: saline 96 % of control and 97 % of control and 109 % of control | [4] 104 % of control | dose: 100.0 mg/kg/injection, schedule: Q04DX003 (ip), vehicle: saline sonified 91 % of control

O=c1cc[nH]c(=O)o1
inactive: dose: 63.0 mg/kg/injection, schedule: Q01DX009 (ip), vehicle: water 89 % of control

O=C(c1ccc(F)cc1)c1ccc2ccccc2c1C(=O)O
inactive: [5] 89 % of control | [6] 92 % of control | [7] 99 % of control

CCCCNC(=O)C1C=C2c3cccc4[nH]cc(c34)CC2N(C)C1 (configuration not stated)
inactive: dose: 12.5 mg/kg/injection, schedule: Q01DX009 (ip), vehicle: Klucel (hydroxypropylcellulose) (HPC) 102 % of control | dose: 25.0 mg/kg/injection, schedule: Q01DX009 (ip), vehicle: Klucel (hydroxypropylcellulose) (HPC) 104 % of control | dose: 25.0 mg/kg/injection, schedule: Q04DX003 (ip), vehicle: Klucel (hydroxypropylcellulose) (HPC) 93 % of control | dose: 50.0 mg/kg/injection, schedule: Q01DX009 (ip), vehicle: Klucel (hydroxypropylcellulose) (HPC) 118 % of control | dose: 50.0 mg/kg/injection, schedule: Q04DX003 (ip), vehicle: Klucel (hydroxypropylcellulose) (HPC) 93 % of control | [8] 104 % of control | [9] 95 % of control

O=C(O)C1CCCCC1
inactive: [10] 96 % of control | [11] 98 % of control | [12] 104 % of control | [13] 96 % of control

CC(C)CCCC(C)C1CCC2C3CC=C4CC(C(=O)NN)CCC4(C)C3CCC12C (configuration not stated)
inactive: [14] 96 % of control | [15] 96 % of control | [16] 98 % of control

N#C/C([SH2+])=C(/[SH2+])C#N.N#C/C([SH2+])=C(/[SH2+])C#N.N#C/C([SH2+])=C(/[SH2+])C#N.N#C/C([SH2+])=C(/[SH2+])C#N.[Co+3].[Co+3].c1ccc([P+](c2ccccc2)(c2ccccc2)c2ccccc2)cc1
inactive: [4] 105 % of control | dose: 100.0 mg/kg/injection, schedule: Q01DX001 (ip), vehicle: saline 105 % of control | [1] 97 % of control | dose: 200.0 mg/kg/injection, schedule: Q01DX001 (ip), vehicle: saline 109 % of control | [2] 108 % of control

C1COCCN1
inactive: dose: 25.6 mg/kg/injection, schedule: Q04DX002 (ip), vehicle: saline with Tween-80 101 % of control | dose: 64.0 mg/kg/injection, schedule: Q04DX002 (ip), vehicle: saline with Tween-80 101 % of control | [14] 98 % of control | dose: 160.0 mg/kg/injection, schedule: Q04DX002 (ip), vehicle: saline with Tween-80 101 % of control | [15] 101 % of control | dose: 400.0 mg/kg/injection, schedule: Q04DX002 (ip), vehicle: saline with Tween-80 101 % of control | [16] 95 % of control

O=C(O)c1c(F)c(F)c(Oc2c(F)c(F)c(F)c(F)c2F)c(F)c1F
inactive: [8] 95 % of control | [9] 93 % of control

CC(C)OC(=O)Nc1cccnc1
inactive: [5] 92 % of control | [6] 98 % of control | [7] 103 % of control

C1=C/C2OC2CCCC/1 (configuration not stated)
inactive: dose: 50.0 mg/kg/injection, schedule: Q01DX009 (ip), vehicle: saline 96 % of control | [17] 97 % of control | [1] 102 % of control | [18] 102 % of control | [2] 87 % of control | [3] 93 % of control

CC1(c2ccc(Cl)cc2)NC(=O)N(CN2CCCCC2)C1=O (configuration not stated)
inactive: dose: 12.5 mg/kg/injection, schedule: Q01DX009 (ip), vehicle: saline sonified 102 % of control | dose: 25.0 mg/kg/injection, schedule: Q01DX009 (ip), vehicle: saline sonified 96 % of control | dose: 50.0 mg/kg/injection, schedule: Q01DX009 (ip), vehicle: saline sonified 104 % of control

Clc1ccc(-c2nn[nH]n2)cc1
inactive: [5] 96 % of control | [6] 93 % of control

Cc1c(Cl)cccc1Nc1n[nH]c(=S)s1
inactive: dose: 75.0 mg/kg/injection, schedule: Q01DX001 (ip), vehicle: other 98 % of control | dose: 150.0 mg/kg/injection, schedule: Q01DX001 (ip), vehicle: other 98 % of control | dose: 300.0 mg/kg/injection, schedule: Q01DX001 (ip), vehicle: other 93 % of control

O=C1c2ccccc2C(=O)N1CNc1ccccc1S
inactive: dose: 100.0 mg/kg/injection, schedule: Q01DX009 (ip), vehicle: Klucel (hydroxypropylcellulose) (HPC) 100 % of control | dose: 200.0 mg/kg/injection, schedule: Q01DX009 (ip), vehicle: Klucel (hydroxypropylcellulose) (HPC) 104 % of control | dose: 400.0 mg/kg/injection, schedule: Q01DX009 (ip), vehicle: Klucel (hydroxypropylcellulose) (HPC) 109 % of control

O=C(Cl)c1cc(Cl)nc2c(Cl)cc(Cl)cc12
inactive: dose: 75.0 mg/kg/injection, schedule: Q01DX001 (ip), vehicle: saline 86 % of control | dose: 150.0 mg/kg/injection, schedule: Q01DX001 (ip), vehicle: saline 94 % of control | dose: 300.0 mg/kg/injection, schedule: Q01DX001 (ip), vehicle: saline 90 % of control

COc1cccc(/C=N/NC(=O)C[n+]2ccccc2)c1OC
inactive: dose: 25.0 mg/kg/injection, schedule: Q01DX009 (ip), vehicle: saline with Tween-80 98 % of control | dose: 50.0 mg/kg/injection, schedule: Q01DX009 (ip), vehicle: saline with Tween-80 106 % of control | [14] 113 % of control

O=C(Nc1cccc(Cl)c1)Nc1ccccc1C(F)(F)F
inactive: [10] 104 % of control | [11] 106 % of control | [12] 106 % of control | [13] 101 % of control

NC(N)=NS(=O)(=O)c1ccc(N)cc1
inactive: [19] 98 % of control | [20] 95 % of control | [21] 91 % of control

CC(CS(=O)(=O)O)N1CCN(CCO)CC1 (configuration not stated)
inactive: [17] 101 % of control | [1] 108 % of control | [18] 96 % of control | [2] 103 % of control | dose: 400.0 mg/kg/injection, schedule: Q01DX009 (ip), vehicle: saline 96 % of control | [3] 94 % of control

[O]=[V]([OH])([OH])[OH]
inactive: dose: 2.0 mg/kg/injection, schedule: Q01DX015 (ip), vehicle: saline 101 % of control | dose: 4.0 mg/kg/injection, schedule: Q01DX015 (ip), vehicle: saline 103 % of control | dose: 8.0 mg/kg/injection, schedule: Q01DX015 (ip), vehicle: saline 103 % of control | dose: 12.5 mg/kg/injection, schedule: Q01DX001 (ip), vehicle: saline 113 % of control | dose: 16.0 mg/kg/injection, schedule: Q01DX015 (ip), vehicle: saline 108 % of control | dose: 25.0 mg/kg/injection, schedule: Q01DX001 (ip), vehicle: saline 96 % of control | dose: 32.0 mg/kg/injection, schedule: Q01DX015 (ip), vehicle: saline 103 % of control | dose: 50.0 mg/kg/injection, schedule: Q01DX001 (ip), vehicle: saline 98 % of control | dose: 64.0 mg/kg/injection, schedule: Q01DX015 (ip), vehicle: saline 88 % of control

Cc1ccccc1NC(=O)c1ccc([N+](=O)[O-])cc1
inactive: [19] 106 % of control | [14] 98 % of control | [20] 101 % of control | [15] 94 % of control | [21] 101 % of control | [16] 98 % of control
